Test results reported in ChEMBL document CHEMBL3580598, “Limonoids and Triterpenoids from Dysoxylum mollissimum var. glaberrimum” (J Nat Prod, 2015).

What was measured:
P388 [1] = assay: Cytotoxicity against mouse P388 cells by MTT method; assay type: functional, cell-based
HL-60 [2] = assay: Cytotoxicity against human HL60 cells by MTT method; assay type: functional, cell-based
A549 [3] = assay: Cytotoxicity against human A549 cells by SRB protein staining method; assay type: functional, cell-based
P388 [4] = assay: Cytotoxicity against mouse P388 cells assessed as inhibition of cell growth at 10 uM by MTT method; assay type: functional; details: read-out: GI
HL-60 [5] = assay: Cytotoxicity against human HL60 cells assessed as inhibition of cell growth at 10 uM by MTT method; assay type: functional; details: read-out: GI
A549 [6] = assay: Cytotoxicity against human A549 cells assessed as inhibition of cell growth at 10 uM by SRB protein staining method; assay type: functional; details: read-out: GI

COc1cccc2c1C(=O)c1c(O)c3c(c(O)c1C2=O)C[C@@](O)(C(=O)CO)C[C@@H]3O[C@H]1C[C@H](N)[C@H](O)[C@H](C)O1 [DOXORUBICIN]
IC50 (P388 [1]): 200 nM | IC50 (HL-60 [2]): 58 nM

C=C1[C@@H]([C@@]2(C)[C@@H](OC(C)=O)CC(=O)O[C@@](C)(COC(C)=O)[C@@H]2CC(=O)OC)[C@@H](C(=O)O)[C@H](OC(=O)C(O)C(C)C)[C@@]2(C)[C@H](c3ccoc3)C(OC(=O)C(C)CC)[C@H]3O[C@]132 (some centres undefined)
IC50 (A549 [3]): 2100 nM

C=C1[C@@H]([C@@]2(C)C=CC(=O)O[C@@](C)(COC(C)=O)[C@@H]2CC(=O)OC)[C@@H](OC=O)[C@H](OC(=O)C(O)C(C)C)[C@@]2(C)[C@H](c3ccoc3)[C@@H](OC(=O)C(OC(C)=O)C(C)C)[C@H]3O[C@]132 (some centres undefined)
inhibition of growth at 10 µM (P388 [4]): < 50% | inhibition of growth at 10 µM (HL-60 [5]): < 50% | inhibition of growth at 10 µM (A549 [6]): < 50%

C=C(C)[C@@H]1C[C@@H](O)[C@@]2(C)C3=C[C@H](OC(C)=O)[C@@H](c4ccoc4)[C@]3(C)CC[C@@H]2[C@@]1(C)[C@@H](O)CC(=O)OC
inhibition of growth at 10 µM (P388 [4]): < 50% | inhibition of growth at 10 µM (HL-60 [5]): < 50% | inhibition of growth at 10 µM (A549 [6]): < 50%

C[C@@H]([C@@H]1O[C@H]1[C@H](O)C(C)(C)O)[C@@H]1CC[C@]2(C)C3=CC[C@H]4C(C)(C)C(=O)CC[C@]4(C)[C@H]3CC[C@@]12C
inhibition of growth at 10 µM (HL-60 [5]): < 50% | inhibition of growth at 10 µM (A549 [6]): < 50%

CC(=O)O[C@H]1CC(=O)O[C@@]2(C)CO[C@H]3[C@@H](OC(=O)C(O)C(C)C)[C@]4(C)[C@H](CC[C@@]5(C)[C@H](c6ccoc6)OC(=O)[C@H]6O[C@@]645)[C@]1(C)[C@@H]32 (some centres undefined)
inhibition of growth at 10 µM (P388 [4]): < 50% | inhibition of growth at 10 µM (HL-60 [5]): < 50% | inhibition of growth at 10 µM (A549 [6]): < 50%

COC(=O)C[C@H](OC(C)=O)[C@]1(C)[C@H]2CC[C@@]3(C)[C@H](c4ccoc4)OC(=O)[C@H]4O[C@]43[C@]2(C)[C@H](OC(C)=O)[C@H](OC(C)=O)[C@H]1C(C)(C)O
inhibition of growth at 10 µM (P388 [4]): < 50% | inhibition of growth at 10 µM (HL-60 [5]): < 50% | inhibition of growth at 10 µM (A549 [6]): < 50%

CC1(C)C(=O)CC[C@]2(C)[C@H]3CC[C@]4(C)C(=CC[C@H]4C4=CC(=O)OC4)[C@]3(C)[C@H](OC(=O)c3ccccc3)C[C@@H]12
inhibition of growth at 10 µM (P388 [4]): < 50% | inhibition of growth at 10 µM (HL-60 [5]): < 50% | inhibition of growth at 10 µM (A549 [6]): < 50%

CC(=O)O[C@H]1CC(=O)O[C@@]2(C)CO[C@H]3[C@@H](O)[C@]4(C)[C@H](CC[C@@]5(C)[C@H](c6ccoc6)OC(=O)[C@H]6O[C@@]645)[C@]1(C)[C@@H]32
inhibition of growth at 10 µM (P388 [4]): < 50% | inhibition of growth at 10 µM (HL-60 [5]): < 50% | inhibition of growth at 10 µM (A549 [6]): < 50%

CC(=O)O[C@@H]1C[C@H]2C(C)(C)[C@H](O)CC[C@]2(C)[C@H]2CC[C@]3(C)C(=CC[C@H]3[C@@]3(O)COC(=O)C3)[C@@]21C
inhibition of growth at 10 µM (P388 [4]): < 50% | inhibition of growth at 10 µM (HL-60 [5]): < 50% | inhibition of growth at 10 µM (A549 [6]): < 50%

C[C@@H]([C@@H]1O[C@H]1[C@@H](O)C(C)(C)O)[C@@H]1CC[C@]2(C)C3=CC[C@H]4C(C)(C)C(=O)CC[C@]4(C)[C@H]3CC[C@@]12C
inhibition of growth at 10 µM (P388 [4]): < 50% | inhibition of growth at 10 µM (HL-60 [5]): < 50% | inhibition of growth at 10 µM (A549 [6]): < 50%
